Entries after “also recorded” stand apart in the source; their conditions may differ.
What was measured:
HMC3 microglia [1] = assay: Total intracellular ROS (H2DCFDA dye) in microglia on stiffness after NAC pretreatment; type: cell-based, human; settings: NAC-pre-treated microglia; 11 days on stiffness (2, 8, 25 kPa)
Description: ROS Quantification and Imaging: 5-(and6)-Chloromethyl-2′,7′-dichlorodihydro-fluorescein diacetate (CM-H2DCFDA) is a fluorescent indicator activated by the presence of ROS. The intensity of CM-H2DCFDA was measured by calculating the corrected total cell fluorescence (CTCF) from The Open Lab Book Imaging protocols. Microglial cells were plated onto 12-well plates at a density of 75,000 cells/mL. Microglial cells were grown to confluency and then 10 μM DCF-DA (Invitrogen) was added to all wells, and cells were incubated for a further 30 minutes before analysis of ROS-activated DCF-DA fluorescence (FL-1/525 nm).
(§1) NAC administration in microglial cells: NAC was purchased (Sigma-Aldrich, St. Louis, MO, USA) and was used in treatment after seeding microglial cells for 3 hours with a 2×PBS wash, then replaced with microglia media every 72 hours. Concentrations of 0.25 and 2.5 mM were used 36. Microglia were grown for 11 days and then assessed using qRT-PCR, counting, and luminescent assays.

HMC3 microglia [2] = assay: Morphology of HMC3 microglia on BEASTS surfaces after NAC pretreatment; type: cell-based, human; settings: 0.25 mM NAC pretreatment; after 11 days; all stiffnesses
Description: To investigate the protective effect of NAC on stiffness-activated microglia, microglial cells were pretreated with 0.25 and 2.5 mM NAC prior to seeding. After 11 days, the morphology was ramified across all treatments with 0.25 mM NAC (FIG. 17A). ROS production was then measured. […] Next, the genotypes of untreated microglia were compared with NAC-treated microglia and an attenuation was found in each transcript. […] Additionally the MI profile correspondingly attenuated and mechanosensors; however, the M2 marker PPARG increased. To investigate the influence of NAC on caspase-1 stiffness-driven inflammation, the activity of caspase-1 was measured. The activity was reduced in 2 and 8 kPa; however, 25 kPa had increased caspase-1 activity, corroborating the findings with the loss of the CX3CR1 transcript (FIGS. 17E and 17F). […] Together, these findings indicate that pre-treatment of NAC attenuates ROS-driven dysfunction in stiffness-activated microglia. […] BV2 mouse microglia and HMC3 human cells: All cells were grown in aseptic conditions following standard cell culture protocol and stored in an incubator set at 37° C. with 5% CO2. […] Microglia were grown for 11 days and then assessed using qRT-PCR, counting, and luminescent assays.

HMC3 microglia [3] = assay: qRT-PCR gene expression in microglia with and without NAC pretreatment; type: cell-based, human
Description: NAC administration in microglial cells: NAC was purchased (Sigma-Aldrich, St. Louis, MO, USA) and was used in treatment after seeding microglial cells for 3 hours with a 2×PBS wash, then replaced with microglia media every 72 hours. Concentrations of 0.25 and 2.5 mM were used 36. Microglia were grown for 11 days and then assessed using qRT-PCR, counting, and luminescent assays. Gene Expression by Quantitative RT-PCR (qRT-PCR): Total RNA expression was extracted from microglial cells using TRIzol reagent (Invitrogen, CA, USA) and RNA samples were quantified by Take3 Micro-Volume Plate reader (BioTek, VT, USA) by spectrophotometry at 260/280 nm. Purity was assessed by an absence of 320 nm. RNA samples were reverse transcribed using the M-MuLV RT reagent Kit (New England BioLabs, MA, USA). Relative mRNA levels were determined by real-time PCR using a SYBR® PowerUp master mix and a real-time PCR detection system (Mastercycler Realplex ep gradient, Eppendorf, Hamburg, Germany). Data were expressed in Ct values normalized to 18S and […] between control (2 kPa) and treated groups (8, 15, 25 kPa) was determined using the 2-ΔΔCt method. The telomerase-associated genes were probed using the TaqManTM Array Human Telomere Extension by Telomerase (Applied Biosystems #4414187) with multiple plates. Briefly, samples were loaded with SYBR® PowerUp master mix and a real-time PCR detection system (Mastercycler Realplex ep gradient, Eppendorf, Hamburg, Germany). Data were expressed in Ct values normalized to endogenous controls provided with the array and […] and older change between groups was determined using the 2-ΔΔCt method.

caspases 3, 5, and 6 = assay: Non-canonical caspase activity (with Ac-YVAD-CHO) in microglia; type: cell-based, human; settings: NAC pre-treatment
Description: (§2) Caspase-1 and Non-canonical Inflammasome Activity Assays: Detection of caspase-1 and non-canonical caspases using a luciferase assay was performed using Caspase-Glo™ Inflammasome Assay (Cat #G9951; Promega, Madison WI, USA) according to the manufacturer's instructions. Briefly, microglial cells were grown in 12-well plates on differing stiffness for 11 days and then plated with a selective caspase-1 substate, Z-WEHD, for catalytically active caspase-1 with or without a caspase-1 specific inhibitor, Ac-YVAD-CHO, to confirm specific activity in parallel samples. The Ac-YVAD-CHO has minimal effect on other cross-reacting caspases 3, 5, and 6, thereby, representing non-canonical inflammatory caspase activity. Total luminescence was measured using a Synergy™ 2 multi-mode microplate reader (BioTek, VT, USA). NAC administration in microglial cells: NAC was purchased (Sigma-Aldrich, St. Louis, MO, USA) and was used in treatment after seeding microglial cells for 3 hours with a 2×PBS wash, then replaced with microglia media every 72 hours. Concentrations of 0.25 and 2.5 mM were used 36. Microglia were grown for 11 days and then assessed using qRT-PCR, counting, and luminescent assays.

HMC3 microglia [4] = assay: Microglial proliferation and growth on stiffness after NAC pretreatment; type: cell-based, human
Description: Cell Count and Growth Analysis: Microglia were seeded in triplicate (7.5×10^5 cells/well) in a 12-well plate and the growth of cells was counted every other day, after which the stiffer matrices reached 100% confluency. At 48 h intervals, cells were trypsinized and counted using trypan blue exclusion tests. The doubling time of each stiffness was calculated with the following formula: […], where C_start is the number of cells at the beginning (day 0), C_end is the number of cells after a period of time t and T is the doubling time. NAC administration in microglial cells: NAC was purchased (Sigma-Aldrich, St. Louis, MO, USA) and was used in treatment after seeding microglial cells for 3 hours with a 2×PBS wash, then replaced with microglia media every 72 hours. Concentrations of 0.25 and 2.5 mM were used 36. Microglia were grown for 11 days and then assessed using qRT-PCR, counting, and luminescent assays.

caspase-1 = molecular target: T1, caspase-1 (Homo sapiens, UniProt P29466); assay: Intracellular caspase-1 activity, bioluminescent assay of microglia; type: cell-based; settings: NAC pretreatment
T1 construct: endogenous in cells; host or cells: microglial cells (HMC3 inferred)
T1 sequence (P29466 120-297 limits assumed): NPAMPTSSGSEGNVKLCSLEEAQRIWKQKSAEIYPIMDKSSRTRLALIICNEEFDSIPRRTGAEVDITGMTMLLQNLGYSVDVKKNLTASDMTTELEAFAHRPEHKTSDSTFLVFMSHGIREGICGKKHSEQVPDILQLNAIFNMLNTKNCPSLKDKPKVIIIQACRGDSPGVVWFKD
T1 sequence (P29466 317-404 limits assumed): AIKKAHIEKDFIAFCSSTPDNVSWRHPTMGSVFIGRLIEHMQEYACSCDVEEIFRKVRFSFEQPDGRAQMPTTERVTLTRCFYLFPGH
Description: as §2, with “USA).” for “USA). NAC administration in microglial cells: NAC was purchased (Sigma-Aldrich, St. Louis, MO, USA) and was used in treatment after seeding microglial cells for 3 hours with a 2×PBS wash, then replaced with microglia media every 72 hours. Concentrations of 0.25 and 2.5 mM were used 36. Microglia were grown for 11 days and then assessed using qRT-PCR, counting, and luminescent assays.”
as §1

[5] = tested on: Nrf2-related genes in HTR8 cells; settings: sulforaphane treatment
Description: Sulforaphane (SFN) is a naturally occurring compound present in cruciferous vegetables like broccoli, watercress, Brussels sprouts, cabbage, and cauliflower. […] As a potent Nrf2 activator, SFN affects the expression of approximately 200 genes, including those involved in antioxidant and anti-inflammatory processes. To explore the impact of sulforaphane treatment on the expression levels of Nrf2-related genes, HTR8 cells were cultured on 8 kPa, 25 kPa, and 55 kPa BEASTS surfaces and the gene expression was analyzed by RT-PCR.
Gene Expression analysis of the HTR8 cells: Cells were cultured on BEASTS substrates of different stiffness levels (8 kPa, 25 kPa, and 55 kPa) for four days. After the culture, the total RNA was isolated from the HTR8 cells using Trizol following the manufacturer's instructions. RNA was extracted from the aqueous phase of the cell lysates by adding chloroform, followed by
RNA precipitation using isopropyl alcohol and rinsed with 75% ethanol. The RNA pellet was quantified and quality-checked using a spectrophotometer and then reverse-transcribed using the iScript™ cDNA synthesis kit. Subsequently, the relative expression levels of the target genes were analyzed using quantitative real-time PCR with SYBR Green Master Mix, and GAPDH was used as the housekeeping gene. The […] was employed for data analysis.

[6] = HTR8 cells, all three stiffness levels (8, 25, 55 kPa)

| activity of non-canonical caspases (caspases 3, 5, and 6; 2 and 8 kPa) | activity of non-canonical caspases (caspases 3, 5, and 6; elevated activity at 25 kPa) | caspase-1 activity (caspase-1; 2 and 8 kPa) | caspase-1 activity (caspase-1; 25 kPa) | SMILES | ROS production (HMC3 microglia [1]) | microglial morphology (HMC3 microglia [2]) | transcripts of NAC-treated versus untreated microglia (HMC3 microglia [3]; 0.25 mM NAC pretreatment, RT-qPCR, 2, 8, 25 kPa) | inflammatory phenotype of microglia (HMC3 microglia [3]; NAC pretreatment, HMC3 cell line on stiffness) | PTGS2 expression (HMC3 microglia [3]; NAC pretreatment, qRT-PCR) | YAP1 expression (HMC3 microglia [3]; NAC pretreatment, qRT-PCR) | M1 inflammatory profile (printed MI profile) (HMC3 microglia [3]; NAC-treated microglia) | PPARG (M2 marker) expression (HMC3 microglia [3]; NAC-treated microglia) | CX3CR1 (steady-state marker) expression (HMC3 microglia [3]; NAC-treated microglia, 25 kPa) | stiffness-induced microglial proliferation / growth (HMC3 microglia [4]) | expression levels of Nrf2-related genes ([5]; HTR8 cells on 8 kPa, 25 kPa, and 55 kPa BEASTS surfaces, RT-PCR) | GCLM gene expression ([5]; HTR8 cells, 8 kPa and 55 kPa) | HMOX1 gene expression ([5]; HTR8 cells, 55 kPa) | GSR gene expression [5, 6] | NQO1 gene expression [5, 6] |
| --- | --- | --- | --- | --- | --- | --- | --- | --- | --- | --- | --- | --- | --- | --- | --- | --- | --- | --- | --- |
| reduced | attenuated | reduced | increased | CC(=O)N[C@@H](CS)C(=O)O [NAC, N-Acetyl-l-Cysteine] | mitigates; also recorded: significantly reduced; also recorded: ameliorates | ramified | attenuation | ameliorates | decrease | decrease | attenuated | increased | decreased substantially | mitigates; also recorded: slows | – | – | – | – | – |
| – | – | – | – | C[S+]([O-])CCCCN=C=S (stereo not shown) [sulforaphane, Sulforaphane] | – | – | – | – | – | – | – | – | – | – | increase | markedly upregulated | markedly upregulated | significantly upregulated | significantly upregulated |
